Results: ChEMBL document CHEMBL4402526, “Design and Synthesis of Fungal-Selective Resorcylate Aminopyrazole Hsp90 Inhibitors” (J Med Chem, 2020)
Each block holds one molecule with its values, some of them ahead of it. The source made the active and inactive calls. How the calls were made is not given here.

Columns and labels:
[1] = Microsomal stability in CD-1 mouse liver microsomes assessed as parent compound remaining at 1 uM measured at 60 mins by LC-MS/MS analysis; type: ADME, Microsome; settings: read-out: Stability
Cryptococcus neoformans = assay: Antifungal activity against Cryptococcus neoformans H99 assessed as fungal growth inhibition at <= […] uM measured after 48 hrs by resazurin assay; type: functional, organism-based
Candida albicans = assay: Antifungal activity against Candida albicans clinical isolate 2 assessed as fungal growth inhibition at <= […] uM measured after 48 hrs by resazurin assay; type: functional, organism-based

remaining at 1 h, 1 µM [1]: 20.6%
Structure (SMILES): Cn1nc(-c2ccc(OC(F)(F)F)cc2)cc1Nc1cc(O)cc(O)c1C(=O)N1Cc2cn[nH]c2C1
Activity (Cryptococcus neoformans): Active
Activity (Candida albicans): Active

Structure (SMILES): Cc1ccccc1-c1cc(Nc2cc(O)cc(O)c2C(=O)N2Cc3cn[nH]c3C2)n(C)n1
Activity (Cryptococcus neoformans): Active
Activity (Candida albicans): Active

Structure (SMILES): CC(C)Cn1nccc1Nc1cc(O)cc(O)c1C(=O)N1Cc2cn[nH]c2C1
Activity (Cryptococcus neoformans): Active
Activity (Candida albicans): Active

Structure (SMILES): CC(C)Cn1nccc1Nc1cc(O)cc(O)c1C(=O)N1Cc2ccccc2C1
Activity (Cryptococcus neoformans): Active
Activity (Candida albicans): Active

Structure (SMILES): Cc1ccccc1-c1cc(Nc2cc(O)cc(O)c2C(=O)N2Cc3cccnc3C2)n(C)n1
Activity (Cryptococcus neoformans): Active
Activity (Candida albicans): Active

Structure (SMILES): O=C(c1c(O)cc(O)cc1Nc1ccnn1Cc1ccco1)N1Cc2cn[nH]c2C1
Activity (Cryptococcus neoformans): Active
Activity (Candida albicans): Active

Structure (SMILES): CC(C)Cn1nc(-c2ccccc2)cc1Nc1cc(O)cc(O)c1C(=O)N1Cc2cccnc2C1
Activity (Cryptococcus neoformans): Active
Activity (Candida albicans): Active

Structure (SMILES): O=C(c1c(O)cc(O)cc1Nc1ccnn1Cc1ccccc1)N1Cc2ccccc2C1
Activity (Cryptococcus neoformans): Active
Activity (Candida albicans): Active

Structure (SMILES): COc1ccc(Cn2nc(-c3ccccc3)cc2Nc2cc(O)cc(O)c2C(=O)N2Cc3cccc(F)c3C2)cc1
Activity (Cryptococcus neoformans): Active
Activity (Candida albicans): Active

Structure (SMILES): COc1ccc(Cn2ncc(-c3ccccc3)c2Nc2cc(O)cc(O)c2C(=O)N2Cc3ccccc3C2)cc1
Activity (Cryptococcus neoformans): Active
Activity (Candida albicans): Active

Structure (SMILES): Cc1cccc(-c2cc(Nc3cc(O)cc(O)c3C(=O)N3Cc4cccnc4C3)n(C)n2)c1
Activity (Cryptococcus neoformans): Active
Activity (Candida albicans): Active

Structure (SMILES): COc1ccc(-c2cc(Nc3cc(O)cc(O)c3C(=O)N3Cc4cn[nH]c4C3)n(C)n2)cc1
Activity (Cryptococcus neoformans): Active
Activity (Candida albicans): Active

Structure (SMILES): O=C(c1c(O)cc(O)cc1Nc1ccnn1C1CCCCC1)N1Cc2cccnc2C1
Activity (Cryptococcus neoformans): Active
Activity (Candida albicans): Active

Structure (SMILES): CC(C)n1nccc1Nc1cc(O)cc(O)c1C(=O)N1Cc2cccnc2C1
Activity (Cryptococcus neoformans): Active
Activity (Candida albicans): Active

Structure (SMILES): O=C(c1c(O)cc(O)cc1Nc1ccnn1-c1ccccc1)N1Cc2ccccc2C1
Activity (Cryptococcus neoformans): Active
Activity (Candida albicans): Active

Structure (SMILES): CC(C)(C)n1nc(-c2ccccc2)cc1Nc1cc(O)cc(O)c1C(=O)N1Cc2cccnc2C1
Activity (Cryptococcus neoformans): Active
Activity (Candida albicans): Active

Structure (SMILES): COc1ccc(-c2cc(Nc3cc(O)cc(O)c3C(=O)N3Cc4ccccc4C3)n(C)n2)cc1
Activity (Cryptococcus neoformans): Active
Activity (Candida albicans): Active

Structure (SMILES): COc1ccc(Cn2nc(C3CC3)cc2Nc2cc(O)cc(O)c2C(=O)N2Cc3cn[nH]c3C2)cc1
Activity (Cryptococcus neoformans): Active
Activity (Candida albicans): Active

Structure (SMILES): COc1ccc(Cn2nc(C3CCCC3)cc2Nc2cc(O)cc(O)c2C(=O)N2Cc3cccnc3C2)cc1
Activity (Cryptococcus neoformans): Active
Activity (Candida albicans): Active

Structure (SMILES): CC(C)c1cc(Nc2cc(O)cc(O)c2C(=O)N2Cc3cccnc3C2)n(C)n1
Activity (Cryptococcus neoformans): Active
Activity (Candida albicans): Active

Structure (SMILES): O=C(c1c(O)cc(O)cc1Nc1ccnn1C1CCCCC1)N1Cc2ccccc2C1
Activity (Cryptococcus neoformans): Active
Activity (Candida albicans): Active

Structure (SMILES): Cn1nc(-c2cccc(C(F)(F)F)c2)cc1Nc1cc(O)cc(O)c1C(=O)N1Cc2ccccc2C1
Activity (Cryptococcus neoformans): Active
Activity (Candida albicans): Active

Structure (SMILES): Cc1cccc(-c2cc(Nc3cc(O)cc(O)c3C(=O)N3Cc4ccccc4C3)n(C)n2)c1
Activity (Cryptococcus neoformans): Active
Activity (Candida albicans): Active

Structure (SMILES): COc1ccc(Cn2nc(C)cc2Nc2cc(O)cc(O)c2C(=O)N2Cc3ccc(OCCN(C)C)cc3C2)cc1
Activity (Cryptococcus neoformans): Active
Activity (Candida albicans): Active

Structure (SMILES): COc1ccc(Cn2nc(C)cc2Nc2cc(O)cc(O)c2C(=O)N2Cc3cccc(F)c3C2)cc1
Activity (Cryptococcus neoformans): Active
Activity (Candida albicans): Active

Structure (SMILES): O=C(c1c(O)cc(O)cc1Nc1cc(-c2ccccc2)nn1C1CCCCC1)N1Cc2cn[nH]c2C1
Activity (Cryptococcus neoformans): Active
Activity (Candida albicans): Active

Structure (SMILES): COc1ccc(Cn2nc(C(C)C)cc2Nc2cc(O)cc(O)c2C(=O)N2Cc3cccnc3C2)cc1
Activity (Cryptococcus neoformans): Active
Activity (Candida albicans): Active
